# Read-outs that look alike come from different tables or passages of the source. Non-standard residues stand in square brackets, D forms with d. Residues, ends and D or L forms follow the SMILES beside them. *: point of attachment. X1 = O=C(O)CN1CCN(CC(=O)O)CCN([C@H](CCC(=O)*)C(=O)O)CCN(CC(=O)O)CC1; Benzoyl(4-SiFtBu2) = CC(C)(C)[Si](F)(c1ccc(C(=O)*)cc1)C(C)(C)C; Nle = CCCC[C@H](N)C(=O)O; dDap = NC[C@@H](N)C(=O)O
# Legend:
# [1] = Lipophilicity, n-octanol/PBS (pH 7.4) distribution coefficient; format: physicochemical
# Procedure: Lipophilicity (depicted as octanol-phosphate-buffered saline solution (PBS, pH = 7.4) distribution coefficient, logD7.4) was determined via dissolving the ^177Lu-labelled peptide (approx. 1 MBq) in a mixture (1/1, v/v) of n-octanol and PBS. The suspension was vortexed in a reaction vial (1.5 mL) for 3 min at RT and the vial was centrifuged at 9000× […] for 5 min (Biofuge 15, Heraus Sepatech GmbH, Osterode, Germany). 200 μL aliquots of both layers were measured separately in a γ-counter (Perkin Elmer, Waltham, MA, USA). The experiment was repeated at least five times.
# [2] = Biodistribution at 24 h p.i. in AR42J tumour-bearing CB17-SCID mice; format: in vivo; settings: mouse, in vivo, 100 pmol, n = 4, mean ± SD
# Procedure: Figure 4 Biodistribution of the reference compound, [^177Lu]Lu-DOTA-PP-F11N (blue), the α-linked [^177Lu]Lu-(R)-DOTAGA-rhCCK-9 (red) and the γ-linked [^177Lu]Lu-(R)-DOTAGA-rhCCK-16 (green) in selected organs (%ID/g) at 24 h p.i. in AR42J tumour-bearing CB17-SCID mice (100 pmol each, n = 4). Data is expressed as mean ± SD.
# All animal experiments were conducted in accordance with general animal welfare regulations in Germany (German animal protection act, in the edition of the announcement, dated 18 May 2006, as amended by Article 280 of 19 June 2020, approval no. ROB-55.2-1-2532.Vet_02-18-109 by the General Administration of Upper Bavaria) and the institutional guidelines for the care and use of animals. CB17-SCID mice of both genders and aged 2–12 months (Charles River Laboratories International Inc., Sulzfeld, Germany) were allowed to acclimate at the in-house animal facility for at least one week prior to tumour cell inoculation was performed. Tumour xenografts were generated using AR42J cells (5.0 × 10^6 cells per 200 µL) suspended in a 1/1 mixture (v/v) of RPMI 1640 medium and Cultrex® Basement Membrane Matrix Type 3 (Trevigen, Gaithersburg, MD, USA). This suspension was inoculated subcutaneously onto the right shoulder and animals were used when tumour volume was >100 mm^3 (1–2 week after inoculation). Exclusion criteria for animals from an experiment were either weight loss higher than 20%, a tumour size above 1500 mm^3, an ulceration of the tumour, respiratory distress or a change of behaviour. None of these criteria applied to any animal from the experiment. Neither randomisation nor blinding was applied in the allocation of the experiments. Health status is SPF according to FELASA.
# For biodistribution studies, the ^177Lu-labelled compound (approx. 2–3 MBq, 100 pmol) was injected into a lateral tail vein (n = 4) of anesthetised (2% isoflurane) AR42J tumour-bearing CB-17-SCID mice. At 24 h post-injection (p.i.), the mice were euthanised. Thereafter, the pertinent organs were removed, weighed and measured using a γ-counter.
# [3] = 177Lu-labelled peptide, n-octanol/PBS pH 7.4, read-out: logD7.4
# [4] = AR42J tumour, read-out: Biodistribution, Tumour
# [5] = read-out: Biodistribution, Adrenal
# [6] = read-out: Biodistribution, Bone
# [7] = read-out: Biodistribution, Intestine
# [8] = read-out: Biodistribution, Kidney
# [9] = read-out: Biodistribution, Liver
# [10] = read-out: Biodistribution, Pancreas
# [11] = read-out: Biodistribution, Spleen
# [12] = read-out: Biodistribution, Stomach
# [13] = read-out: Biodistribution, Blood
# [14] = read-out: Biodistribution, Heart
# [15] = read-out: Biodistribution, Lung
# [16] = read-out: Biodistribution, Muscle
Compound,"logD [1, 3]","tissue uptake at 24 h [2, 4]","tissue uptake at 24 h [2, 5]","tissue uptake at 24 h [2, 6]","tissue uptake at 24 h [2, 7]","tissue uptake at 24 h [2, 8]","tissue uptake at 24 h [2, 9]","tissue uptake at 24 h [2, 10]","tissue uptake at 24 h [2, 11]","tissue uptake at 24 h [2, 12]","tissue uptake at 24 h [2, 13]","tissue uptake at 24 h [2, 14]","tissue uptake at 24 h [2, 15]","tissue uptake at 24 h [2, 16]",logD ([1]; pH 7.4)
"CCCC[C@H](NC(=O)[C@H](Cc1c[nH]c2ccccc12)NC(=O)CNC(=O)[C@H](Cc1ccc(O)cc1)NC(=O)[C@H](C)NC(=O)[C@@H](CCC(=O)O)NC(=O)[C@@H](CCC(=O)O)NC(=O)[C@@H](CCC(=O)O)NC(=O)[C@@H](CCC(=O)O)NC(=O)[C@@H](CCC(=O)O)NC(=O)[C@@H](CCC(=O)O)NC(=O)CN1CCN(CC(=O)O)CCN(CC(=O)O)CCN(CC(=O)O)CC1)C(=O)N[C@@H](CC(=O)O)C(=O)N[C@@H](Cc1ccccc1)C(N)=O [[nat/177Lu]Lu-DOTA-PP-F11N, metal not drawn, reference compound]",-4.75 ± 0.07,1.88 ± 0.82 %ID/g,0.03 ± 0.03 %ID/g,0.03 ± 0.01 %ID/g,0.04 ± 0.02 %ID/g,3.08 ± 0.51 %ID/g,0.67 ± 0.64 %ID/g,0.05 ± 0.01 %ID/g,0.07 ± 0.03 %ID/g,0.36 ± 0.05 %ID/g,,,,,
"CCCC[C@H](NC(=O)[C@H](Cc1c[nH]c2ccccc12)NC(=O)CNC(=O)[C@H](Cc1ccc(O)cc1)NC(=O)[C@H](C)NC(=O)CC[C@@H](NC(=O)CC[C@@H](NC(=O)CC[C@@H](NC(=O)CC[C@@H](NC(=O)CC[C@@H](NC(=O)CC[C@@H](NC(=O)[C@@H](CNC(=O)c1ccc([Si](F)(C(C)(C)C)C(C)(C)C)cc1)NC(=O)CC[C@H](C(=O)O)N1CCN(CC(=O)O)CCN(CC(=O)O)CCN(CC(=O)O)CC1)C(=O)O)C(=O)O)C(=O)O)C(=O)O)C(=O)O)C(=O)O)C(=O)N[C@@H](CC(=O)O)C(=O)N[C@@H](Cc1ccccc1)C(N)=O [[nat/177Lu]Lu-(R)-DOTAGA-rhCCK-16, metal not drawn]",-2.54 ± 0.05,15.7 ± 3.3 %ID/g,1.49 ± 1.5 %ID/g,0.17 ± 0.02 %ID/g,0.2 ± 0.04 %ID/g,85.5 ± 11.3 %ID/g,1.18 ± 0.27 %ID/g,0.39 ± 0.12 %ID/g,0.62 ± 0.03 %ID/g,3.51 ± 0.5 %ID/g,0.01 %ID/g,0.11 ± 0.01 %ID/g,0.09 ± 0.02 %ID/g,0.05 ± 0.01 %ID/g,
"CSCC[C@H](NC(=O)[C@H](Cc1c[nH]c2ccccc12)NC(=O)CNC(=O)[C@H](Cc1ccc(O)cc1)NC(=O)[C@H](C)NC(=O)[C@@H](CCC(=O)O)NC(=O)[C@@H](CCC(=O)O)NC(=O)[C@@H](CCC(=O)O)NC(=O)[C@@H](CCC(=O)O)NC(=O)[C@@H](CCC(=O)O)NC(=O)[C@@H](CCC(=O)O)NC(=O)CN1CCN(CC(=O)O)CCN(CC(=O)O)CCN(CC(=O)O)CC1)C(=O)N[C@@H](CC(=O)O)C(=O)N[C@@H](Cc1ccccc1)C(N)=O [[nat/177Lu]Lu-CP04, metal not drawn, reference compound]",,,,,,,,,,,,,,,-3.8 ± 0.1
"CCCC[C@H](NC(=O)[C@H](Cc1c[nH]c2ccccc12)NC(=O)CNC(=O)[C@H](Cc1ccc(O)cc1)NC(=O)[C@H](C)NC(=O)[C@@H](CCC(=O)O)NC(=O)[C@@H](CCC(=O)O)NC(=O)[C@@H](CCC(=O)O)NC(=O)[C@@H](CCC(=O)O)NC(=O)[C@@H](CCC(=O)O)NC(=O)[C@@H](CCC(=O)O)NC(=O)[C@@H](CCC(=O)O)NC(=O)[C@@H](CCC(=O)O)NC(=O)[C@@H](CNC(=O)c1ccc([Si](F)(C(C)(C)C)C(C)(C)C)cc1)NC(=O)CC[C@H](C(=O)O)N1CCN(CC(=O)O)CCN(CC(=O)O)CCN(CC(=O)O)CC1)C(=O)N[C@@H](CC(=O)O)C(=O)N[C@@H](Cc1ccccc1)C(N)=O [[nat/177Lu]Lu-(R)-DOTAGA-rhCCK-9, metal not drawn] (X1-[dDap](Benzoyl(4-SiFtBu2))[dE][dE][dE][dE][dE][dE][dE][dE]AYGW[Nle]DF-NH2)",-2.84 ± 0.04,6.4 ± 1.48 %ID/g,0.45 ± 0.3 %ID/g,0.82 ± 0.42 %ID/g,0.26 ± 0.04 %ID/g,84.4 ± 22.7 %ID/g,1.07 ± 0.54 %ID/g,0.31 ± 0.2 %ID/g,0.7 ± 0.69 %ID/g,1.8 ± 0.37 %ID/g,0.02 %ID/g,0.09 ± 0.03 %ID/g,0.1 ± 0.05 %ID/g,0.03 ± 0.01 %ID/g,

# — paper PMC9783573, “Introduction of a SiFA Moiety into the D-Glutamate Chain of DOTA-PP-F11N Results in Radiohybrid-Based CCK-2R-Targeted Compounds with Improved Pharmacokinetics In Vivo” (Pharmaceuticals, 2022)
